Measured values reported in patent US4740233A, “Substituted 1,2,4-triazolo[1,5-a]-pyrimidine-2-sulfonamides and compositions and methods of controlling undesired vegetation and suppressing the nitrification of ammonium nitrogen in soil” (The Dow Chemical Company, priority 1986, dated 1988).

Assays:
cotton = experiment: Preemergent control of plant species; assay type: in vivo, Gossypium spp.; details: Gossypium hirsutum, pre-emergence, 336 h; 0.25 lb/acre; read-out: percent preemergent control
How it was run: (§1)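 Growth reduction relative to untreated plants of the same species, assessed two weeks after treatment, defines the control value. Compositions, mostly aqueous emulsions, were deposited uniformly on seeded greenhouse soil beds at the tabulated rates, with a water-treated bed as reference.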

rape = experiment: Preemergent control of plant species; assay type: in vivo, Brassica napus; details: Brassica napus, pre-emergence, 336 h; 0.25 lb/acre; read-out: percent preemergent control
How it was run: as §1

soybean = experiment: Preemergent control of plant species; assay type: in vivo, Glycine max.; details: Glycine max, pre-emergence, 336 h; 0.25 lb/acre; read-out: percent preemergent control
How it was run: as §1

sugar beet = experiment: Preemergent control of plant species; assay type: in vivo, Beta saccharifera; details: Beta vulgaris, pre-emergence, 336 h; 0.25 lb/acre; read-out: percent preemergent control
How it was run: as §1

jimsonweed = experiment: Preemergent control of plant species; assay type: in vivo, Datura stramonium; details: Datura stramonium, pre-emergence, 336 h; 0.25 lb/acre; read-out: percent preemergent control
How it was run: as §1

annual morning glory = experiment: Preemergent control of plant species; assay type: in vivo, Ipomoea spp.; details: Ipomoea, pre-emergence, 336 h; 0.25 lb/acre; read-out: percent preemergent control
How it was run: as §1

pigweed = experiment: Preemergent control of plant species; assay type: in vivo, Amaranthus spp.; details: Amaranthus retroflexus, pre-emergence, 336 h; 0.25 lb/acre; read-out: percent preemergent control
Experimental: The seeds of various species of plants were planted in beds of good agricultural soil in a greenhouse. A number of compositions of the present invention, generally in the nature of an aqueous emulsion, were applied at rates listed in the table so as to deposit a predetermined amount of active ingredients uniformly throughout the surface of the bed. Another seed bed was treated only with water to serve as a control. After treatment the seed beds were maintained for two weeks under greenhouse conditions conducive for good plant growth and watered as necessary. Control refers to the reduction in growth compared to the observed results of the same untreated species.

velvetleaf = experiment: Preemergent control of plant species; assay type: in vivo, Abutilon theophrasti; details: Abutilon theophrasti, pre-emergence, 336 h; 0.25 lb/acre; read-out: percent preemergent control
How it was run: as §1

corn = experiment: Preemergent control of plant species; assay type: in vivo, Zea mays; details: Zea mays, pre-emergence, 336 h; 0.25 lb/acre; read-out: percent preemergent control
How it was run: as §1

rice [1] = experiment: Preemergent control of plant species; assay type: in vivo, Oryza sativa; details: Oryza sativa, pre-emergence, 336 h; 0.25 lb/acre; read-out: percent preemergent control
How it was run: as §1

sorghum = experiment: Preemergent control of plant species; assay type: in vivo, Sorghum vulgare; details: Sorghum, pre-emergence, 336 h; 0.25 lb/acre; read-out: percent preemergent control
How it was run: as §1

wheat = experiment: Preemergent control of plant species; assay type: in vivo, Triticum aestivum; details: Triticum aestivum, pre-emergence, 336 h; 0.25 lb/acre; read-out: percent preemergent control
How it was run: as §1

barnyardgrass [2] = experiment: Preemergent control of plant species; assay type: in vivo, Echinochloa crusgalli; details: Echinochloa crus-galli, pre-emergence, 336 h; 0.25 lb/acre; read-out: percent preemergent control
How it was run: as §1

crabgrass = experiment: Preemergent control of plant species; assay type: in vivo, Digitaria spp.; details: Digitaria sanguinalis, pre-emergence, 336 h; 0.25 lb/acre; read-out: percent preemergent control
How it was run: as §1

johnson grass = experiment: Preemergent control of plant species; assay type: in vivo, Sorghum halepense; details: Sorghum halepense, pre-emergence, 336 h; 0.25 lb/acre; read-out: percent preemergent control
How it was run: as §1

wild oats = experiment: Preemergent control of plant species; assay type: in vivo; details: Avena fatua, pre-emergence, 336 h; 0.25 lb/acre; read-out: percent preemergent control
How it was run: as §1

yellow foxtail = experiment: Preemergent control of plant species; assay type: in vivo, Setaria lutescens; details: Setaria, pre-emergence, 336 h; 0.25 lb/acre; read-out: percent preemergent control
How it was run: as §1

yellow nutsedge [3] = experiment: Preemergent control of plant species; assay type: in vivo, Cyperus esculentus; details: Cyperus, pre-emergence, 336 h; 0.25 lb/acre; read-out: percent preemergent control
How it was run: as §1

rice [4] = experiment: Control of aquatic plant species (paddy water); assay type: in vivo, Oryza sativa; details: Oryza sativa, 216 h, nine days, read-out: Percent control
How it was run: (§2)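 1-2 inch plants transplanted into ~2 in soil, flooded ~1 in deep; acetone concentrate injected into floodwater, volume adjusted for target concentration; % control scored at 9 days.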

barnyardgrass [5] = experiment: Control of aquatic plant species (paddy water); assay type: in vivo, Echinochloa crusgalli; details: Echinochloa crus-galli, 216 h, nine days, read-out: Percent control
Experimental: In testing for such utility, the plant species to be tested were transplanted into 16 oz. containers into about 2 inches of soil when they were in the 1-2 inch stage and then flooded to a depth of about 1 inch. An acetone concentrate of the chemical to be tested was then injected into the paddy water, the volume injected being varied as desired to provide the desired concentration. Percent control was evaluated nine days after application.

sprangletop = experiment: Control of aquatic plant species (paddy water); assay type: in vivo, Leptochloa filiformis; details: Leptochloa filiformis, 216 h, nine days, read-out: Percent control
How it was run: as §2

yellow nutsedge [6] = experiment: Control of aquatic plant species (paddy water); assay type: in vivo, Cyperus esculentus; details: Cyperus, 216 h, nine days, read-out: Percent control
How it was run: as §2

[7] = test system: nitrification of ammonium nitrogen; experiment: Suppression of nitrification of ammonium nitrogen in soil; details: 27° C.
How it was run: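 Soil (20 g) moistened to its 1/3 bar tension value, mixed with test chemical and incubated sealed for two weeks at 27° C. Nitrate extracted with ammonium sulfate solution and measured by nitrate-specific ion electrode; value given as % NH4-N remaining.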

Row | Compound | plant injury at 280.212 g/ha (cotton) [%] | plant injury at 280.212 g/ha (rape) [%] | plant injury at 280.212 g/ha (soybean) [%] | plant injury at 280.212 g/ha (sugar beet) [%] | pest or weed control at 280.212 g/ha (jimsonweed) [%] | pest or weed control at 280.212 g/ha (annual morning glory) [%] | pest or weed control at 280.212 g/ha (pigweed) [%] | pest or weed control at 280.212 g/ha (velvetleaf) [%] | plant injury at 280.212 g/ha (corn) [%] | plant injury at 280.212 g/ha (rice [1]) [%] | plant injury at 280.212 g/ha (sorghum) [%] | plant injury at 280.212 g/ha (wheat) [%] | pest or weed control at 280.212 g/ha (barnyardgrass [2]) [%] | pest or weed control at 280.212 g/ha (crabgrass) [%] | pest or weed control at 280.212 g/ha (johnson grass) [%] | pest or weed control at 280.212 g/ha (wild oats) [%] | pest or weed control at 280.212 g/ha (yellow foxtail) [%] | pest or weed control at 280.212 g/ha (yellow nutsedge [3]) [%] | % NH4-N Remaining After 2 Weeks Incubation ([7]; 0.06 ppm) [%] | % NH4-N Remaining After 2 Weeks Incubation ([7]; 1 ppm) [%] | also measured
1 | Cc1cc(C)n2nc(S(=O)(=O)Nc3c(F)cccc3C(=O)OC(C)C)nc2n1 [Compound 51] | 93 | 95 | 90 | 95 | 95 | 80 | 100 | 95 | 97 | 80 | 97 | 97 | 97 | 95 | 95 | 100 | 97 | 100 | 33 | 78 | pest or weed control at 31 g/ha (rice [4]; 0.031 Kg/Ha): 0%; pest or weed control at 1000 g/ha (rice [4]; 1.0 Kg/Ha): 95%; pest or weed control at 31 g/ha (barnyardgrass [5]; 0.031 Kg/Ha): 35%; pest or weed control at 1000 g/ha (barnyardgrass [5]; 1.0 Kg/Ha): 97%; pest or weed control at 31 g/ha (sprangletop; 0.031 Kg/Ha): 0%; pest or weed control at 1000 g/ha (sprangletop; 1.0 Kg/Ha): 70%; pest or weed control at 31 g/ha (yellow nutsedge [6]; 0.031 Kg/Ha): 93%; pest or weed control at 1000 g/ha (yellow nutsedge [6]; 1.0 Kg/Ha): 97%; % NH4-N Remaining After 2 Weeks Incubation ([7]; 0.25 ppm): 58%; % NH4-N Remaining After 2 Weeks Incubation ([7]; 4 ppm): 87%
2 | COC(=O)c1cccc(C)c1NS(=O)(=O)c1nc2nc(C)cc(C)n2n1 [Compound 50] | 80 | 95 | 95 | 100 | 100 | 80 | 100 | 93 | 99 | 97 | 100 | 100 | 95 | 25 | 95 | 60 | 95 | 99 | – | 73 | pest or weed control at 125 g/ha (rice [4]; 0.125 Kg/Ha): 97%; pest or weed control at 125 g/ha (barnyardgrass [5]; 0.125 Kg/Ha): 97%; pest or weed control at 125 g/ha (sprangletop; 0.125 Kg/Ha): 97%; pest or weed control at 125 g/ha (yellow nutsedge [6]; 0.125 Kg/Ha): 97%; % NH4-N Remaining After 2 Weeks Incubation ([7]; 0.01 ppm): 0%; % NH4-N Remaining After 2 Weeks Incubation ([7]; 0.1 ppm): 38%; % NH4-N Remaining After 2 Weeks Incubation ([7]; 10 ppm): 92%
3 | Cc1cc(C)n2nc(S(=O)(=O)Nc3ccccc3C(F)(F)F)nc2n1 [Compound 13, 5,7-Dimethyl-N-(2-trifluoromethylphenyl)-1,2,4-triazolo[1,5-a]pyrimidine-2-sulfonamide] | 95 | 98 | 95 | 98 | 70 | 90 | 95 | 95 | 80 | 95 | 98 | 20 | 95 | 80 | 95 | 10 | 90 | 98 | 73 | 89 | pest or weed control at 250 g/ha (rice [4]; 0.25 Kg/Ha): 97%; pest or weed control at 250 g/ha (barnyardgrass [5]; 0.25 Kg/Ha): 93%; pest or weed control at 250 g/ha (sprangletop; 0.25 Kg/Ha): 10%; pest or weed control at 250 g/ha (yellow nutsedge [6]; 0.25 Kg/Ha): 93%; % NH4-N Remaining After 2 Weeks Incubation ([7]; 0.125 ppm): 78%; % NH4-N Remaining After 2 Weeks Incubation ([7]; 0.25 ppm): 81%; % NH4-N Remaining After 2 Weeks Incubation ([7]; 0.5 ppm): 85%
